The target of this experiment is T1, Human placenta or human platelet vitronectin receptor, αvβ3 (Homo sapiens, UniProt P05106+P06756).
T1 construct: Human placenta or human platelet vitronectin receptor, αvβ3; from tissue; host or cells: human placenta or human platelets
Briefly: [3H]-SK&F-107260 vitronectin receptor binding assay. As to conditions: sample dissolved in 1:1 TBS:DMSO; 5 nM [3H]-SK&F-107260. How it is done: In vitro binding affinity of conjugates, polymeric micelles and polymer therapeutics of the present invention may be determined by receptor binding assays such as are known in the art. Conjugates, polymeric micelles and polymer therapeutics of the present invention will have a Ki (the dissociation constant of the antagonist) according to a receptor binding assay in the nanomolar to micromolar range, preferably in the nanomolar range.
The following samples were prepared for an in vitro binding assay:
Solution #1: polymer-receptor antagonist conjugate according to Example 3b, dissolved in TBS at a concentration of 10 milliMole of VRA 1.
Solution #2: PEG-PLA copolymer according to Example 2B, dissolved in TBS at a concentration of 50 mg/ml;
Solution #3: VRA 1 dissolved in 1:1 TBS:DMSO at a concentration of 10 milliMole;
Solution #4: polymer-receptor antagonist conjugate according to Example 3b, dissolved in 1:1 TBS:DMSO at a concentration of 10 milliMole VRA 1; and […]
Binding studies were carried out according to the method described by Wong et al., Studies on alphavbeta3/ligand interactions using a (^3H)SK&F-107260 binding assay, Mol. Pharmacology, 1996, 50, 529-537. […] After one hour incubation at room temperature, the wells were aspirated completely and washed twice with 100 ul of ice-cold Buffer A. Bound [^3H]-SK&F-107260 was solubilized and counted.

T1 sequence (P06756 31-889 limits assumed): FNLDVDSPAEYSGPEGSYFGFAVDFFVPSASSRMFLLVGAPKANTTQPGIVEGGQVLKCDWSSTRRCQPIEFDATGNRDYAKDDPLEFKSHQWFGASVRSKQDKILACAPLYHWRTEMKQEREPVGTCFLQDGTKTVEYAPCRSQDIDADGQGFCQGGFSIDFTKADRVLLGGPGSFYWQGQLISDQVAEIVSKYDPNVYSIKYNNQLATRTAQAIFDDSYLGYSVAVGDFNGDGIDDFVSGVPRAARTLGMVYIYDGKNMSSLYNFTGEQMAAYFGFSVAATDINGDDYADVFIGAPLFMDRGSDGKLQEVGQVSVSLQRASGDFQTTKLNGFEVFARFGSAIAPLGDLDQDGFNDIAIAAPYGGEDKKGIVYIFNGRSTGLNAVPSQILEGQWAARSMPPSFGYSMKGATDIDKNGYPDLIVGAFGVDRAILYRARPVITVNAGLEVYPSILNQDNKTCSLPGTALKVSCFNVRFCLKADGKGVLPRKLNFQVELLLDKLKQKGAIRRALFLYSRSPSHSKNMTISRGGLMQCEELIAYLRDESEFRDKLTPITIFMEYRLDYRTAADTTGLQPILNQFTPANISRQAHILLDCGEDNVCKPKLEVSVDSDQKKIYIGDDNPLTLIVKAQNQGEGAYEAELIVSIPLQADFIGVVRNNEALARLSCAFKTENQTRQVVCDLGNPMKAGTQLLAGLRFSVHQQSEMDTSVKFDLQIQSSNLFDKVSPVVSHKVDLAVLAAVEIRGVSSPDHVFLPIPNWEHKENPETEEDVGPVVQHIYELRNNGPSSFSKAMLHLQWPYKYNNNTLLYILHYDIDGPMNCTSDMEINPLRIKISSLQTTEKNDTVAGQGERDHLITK
T1 sequence (P06756 891-1048 partner limits assumed): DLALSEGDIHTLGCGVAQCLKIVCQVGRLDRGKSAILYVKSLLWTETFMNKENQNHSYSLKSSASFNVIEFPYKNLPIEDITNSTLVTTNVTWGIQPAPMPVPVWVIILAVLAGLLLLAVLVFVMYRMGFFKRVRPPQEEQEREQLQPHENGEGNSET
T1 sequence (P05106 27-788): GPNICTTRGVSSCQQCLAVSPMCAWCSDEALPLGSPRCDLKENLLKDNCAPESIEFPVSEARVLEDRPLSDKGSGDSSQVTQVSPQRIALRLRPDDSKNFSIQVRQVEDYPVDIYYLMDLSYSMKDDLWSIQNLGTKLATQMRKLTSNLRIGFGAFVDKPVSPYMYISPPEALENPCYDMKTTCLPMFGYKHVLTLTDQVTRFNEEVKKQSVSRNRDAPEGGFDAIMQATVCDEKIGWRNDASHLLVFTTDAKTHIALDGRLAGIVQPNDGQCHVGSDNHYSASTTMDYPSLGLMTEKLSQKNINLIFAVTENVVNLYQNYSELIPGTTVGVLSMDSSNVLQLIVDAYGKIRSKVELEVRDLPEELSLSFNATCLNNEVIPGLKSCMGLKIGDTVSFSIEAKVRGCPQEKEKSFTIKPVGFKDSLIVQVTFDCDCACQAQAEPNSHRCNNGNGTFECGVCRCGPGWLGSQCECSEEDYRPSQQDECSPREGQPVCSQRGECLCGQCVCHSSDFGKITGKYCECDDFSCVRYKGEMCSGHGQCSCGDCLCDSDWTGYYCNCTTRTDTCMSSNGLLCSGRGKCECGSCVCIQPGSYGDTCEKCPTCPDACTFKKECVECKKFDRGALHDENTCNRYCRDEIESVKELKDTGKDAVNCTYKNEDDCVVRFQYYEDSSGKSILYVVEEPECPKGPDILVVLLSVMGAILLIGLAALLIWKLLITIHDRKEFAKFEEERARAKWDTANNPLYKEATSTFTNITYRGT

As to `CN1Cc2cc(C(=O)N(CCCCN)Cc3nc4ccccc4[nH]3)ccc2N[C@@H](CC(=O)O)C1=O` [VRA 1, (S)-7-[[N-(4-Aminobutyl)-N-(benzimidazol-2-ylmethyl)]amino]carbonyl-4-methyl-3-oxo-2,3,4,5-tetrahydro-1H-1,4-benzodiazepine-2-acetic acid], affinity was put at a Ki of 1.7 nM.

The values above are taken from US20040208844A1, “Products and drug delivery vehicles” (priority 2001, published 2004).
